From the C3SDB collision cross section collection

Conditions: [M+H]+; instrument: TW; Major Mix IMS/Tof Calibration Kit (Waters)

collision cross section (N2) [Å²] | Structure (SMILES)
186 | FC(F)(F)c1ccc2c(c1)C(=CCCN1CCNCC1)c1ccccc1S2 [Flupentixol-M N-desalkyl]
196.8 | O=S1c2ccccc2/C(=C\CCN2CCN(CCO)CC2)c2cc(C(F)(F)F)ccc21 (configuration not stated) [Flupentixol-M sulphoxide]
199.4 | OCCN1CCN(CC/C=C2\c3ccccc3Sc3ccc(C(F)(F)F)cc32)CC1 [Flupentixol]
204.7 | COc1ccc(Cl)cc1C(=O)NCCc1ccc(S(=O)(=O)NC(=O)NC2CCCCC2)cc1 [Glyburide]
180.2 | CCN(CCO)CCCC(C)Nc1ccnc2cc(Cl)ccc12 (configuration not stated) [Hydroxychloroquine]
163.3 | CNCCCN1c2ccccc2CCc2ccccc21 [Imipramine-M Nor]
152.1 | Cc1cc(C(=O)NNCc2ccccc2)no1 [Isocarboxazid]
178.1 | CC(CCc1ccccc1)NCC(O)c1ccc(O)c(C(N)=O)c1 (configuration not stated) [Labetalol]
151.2 | Nc1nnc(-c2cccc(Cl)c2Cl)c(N)n1 [Lamotrigine]
249.8 | COC(=O)C1=C(C)NC(C)=C(C(=O)OC(C)(C)CN(C)CCC(c2ccccc2)c2ccccc2)C1c1cccc([N+](=O)[O-])c1 (configuration not stated) [Lercanidipine]
172.9 | CNC[C@@H](C)CN1c2ccccc2S(=O)c2ccc(OC)cc21 (some centres not stated) [Levomepromazine-M N-desmethyl sulfoxide]
175.7 | CN1CCN(C2=Nc3ccccc3Oc3ccc(Cl)cc32)CC1 [Loxapine]
164.2 | CNCCCC1(C2=CC=CC=C32)CC[C@H]3C4=CC=CC=C14 [Maprotiline]
153.4 | COc1ccc2[nH]cc(CCNC(C)=O)c2c1 [Melatonin]
163.5 | CC1CCN(CCCC(=O)c2ccc(F)cc2)CC1 [Melperone]
146.6 | C[C@]12C[C@@H]3C[C@](C)(C1)C[C@@](N)(C3)C2 [Memantine]
159.1 | Cc1cccc(C)c1NC(=O)C1CCCCN1C (configuration not stated) [Mepivacaine]
196.2 | CN(Cc1cnc2nc(N)nc(N)c2n1)c1ccc(C(=O)N[C@@H](CCC(=O)O)C(=O)O)cc1 [Methotrexate]
172.7 | COCCc1ccc(OCC(O)CNC(C)C)cc1 (configuration not stated) [Metoprolol]
162.5 | O=C(NCCN1CCOCC1)c1ccc(Cl)cc1 [Moclobemide]
243 | CC(C)(O)c1ccccc1CC[C@@H](SCC1(CC(=O)O)CC1)c1cccc(/C=C/c2ccc3ccc(Cl)cc3n2)c1 [Montelukast]
172 | CC(C)(C)NCC(O)COc1cccc2c1C[C@H](O)[C@H](O)C2 (some centres not stated) [Nadolol]
149.6 | c1ccc2c(CC3=NCCN3)cccc2c1 [Naphazoline]
174.3 | CNS(=O)(=O)CCc1ccc2[nH]cc(C3CCN(C)CC3)c2c1 [Naratriptan]
212.1 | COC(=O)C1=C(C)NC(C)=C(C(=O)OCCN(C)Cc2ccccc2)C1c1cccc([N+](=O)[O-])c1 (configuration not stated) [Nicardipine]
171.7 | Cc1nccn1CC1CCc2c(c3ccccc3n2C)C1=O (configuration not stated) [Ondansetron]

collision cross section (N2) [Å²] | Structure (SMILES)
161.7 | C=CCOc1ccccc1OCC(O)CNC(C)C (configuration not stated) [Oxprenolol]
132.2 | CC(=O)Nc1ccc(O)cc1 [Paracetamol]
159.1 | CC(C)NCC(O)COc1cccc2[nH]ccc12 (configuration not stated) [Pindolol]
194.1 | NC(=O)C1(N2CCCCC2)CCN(CCCC(=O)c2ccc(F)cc2)CC1 [Pipamperone]
175.4 | CN1CCC(=C2c3ccccc3CCc3sccc32)CC1 [Pizotifen]
163.7 | CC(CN1c2ccccc2Sc2ccccc21)N(C)C (configuration not stated) [Promethazine]
162.7 | CC(C)NCC(O)COc1cccc2ccccc12 (configuration not stated) [Propranolol]
192.9 | OCCOCCN1CCN(C2=Nc3ccccc3Sc3ccccc32)CC1 [Quetiapine]
174 | CCOc1ccccc1O[C@H](c1ccccc1)[C@H]1CNCCO1 [Reboxetine]
209.9 | Cc1nc2n(c(=O)c1CCN1CCC(c3noc4cc(F)ccc34)CC1)CCCC2O (configuration not stated) [Risperidone-M 9-hydroxy]
160.3 | CN(C)CCc1c[nH]c2ccc(Cn3cncn3)cc12 [Rizatriptan]
163.8 | CCCN(CCC)CCc1cccc2c1CC(=O)N2 [Ropinirole]
148.6 | NC(=O)c1cn(Cc2c(F)cccc2F)nn1 [Rufinamide]
215.9 | O=C1NCCN1CCN1CCC(c2cn(-c3ccc(F)cc3)c3ccc(Cl)cc23)CC1 [Sertindol]
212.7 | CCCc1nn(C)c2c(=O)[nH]c(-c3cc(S(=O)(=O)N4CCN(C)CC4)ccc3OCC)nc12 [Sildenafil]
165.3 | COc1ncnc(NS(=O)(=O)c2ccc(N)cc2)c1OC [Sulfadoxine]
150.8 | Nc1ccc(S(=O)(=O)Nc2ccccn2)cc1 [Sulfapyridine]
189.4 | CN1CC(=O)N2[C@H](c3ccc4c(c3)OCO4)c3[nH]c4ccccc4c3C[C@@H]2C1=O [Tadalafil]
197.1 | CC/C(=C(\c1ccccc1)c1ccc(OCCN(C)C)cc1)c1ccccc1 [Tamoxifen]
170.4 | CN1C(C(=O)Nc2ccccn2)=C(O)c2sccc2S1(=O)=O [Tenoxicam]
154.9 | CC(C)(C)NCC(O)c1cc(O)cc(O)c1 (configuration not stated) [Terbutaline]
149.4 | Clc1ccc2nsnc2c1NC1=NCCN1 [Tizanidine]
163 | CCCCNC(=O)NS(=O)(=O)c1ccc(C)cc1 [Tolbutamide]
182.1 | Cc1ccc(O)c([C@H](CCN(C(C)C)C(C)C)c2ccccc2)c1 [Tolterodine]
203.5 | CCOC(=O)[C@H](CCc1ccccc1)N[C@@H](C)C(=O)N1[C@H](C(=O)O)C[C@H]2CCCC[C@@H]21 [Trandolapril]

Structure (SMILES) | collision cross section (N2) [Å²]
CN1C(=O)CN=C(c2ccccc2F)c2cc(N)ccc21 [Flunitrazepam-M 7-amino] | 163.1
CN1C(=O)CN=C(c2ccccc2F)c2cc([N+](=O)[O-])ccc21 [Flunitrazepam] | 168.6
CCN(CC)CCN1C(=O)CN=C(c2ccccc2F)c2cc(Cl)ccc21 [Flurazepam] | 185.3
CN1CC[C@]23c4c5ccc(O)c4O[C@H]2C(=O)CC[C@H]3[C@H]1C5 [Hydromorphone] | 163.9
CCC(=O)C1(c2cccc(O)c2)CCN(C)CC1 [Ketobemidone] | 159.7
CN1CC[C@]23CCCC[C@H]2[C@H]1Cc1ccc(O)cc13 [Levorphanol] | 161.7
NC(=O)C(CCN1CCC(O)(c2ccc(Cl)cc2)CC1)(c1ccccc1)c1ccccc1 [Loperamid-M didesmethyl] | 211.9
CNC(C)C(=O)c1ccc(C)cc1 (configuration not stated) [Mephedrone] | 143.1
CNC(C)C(=O)c1ccc2c(c1)OCO2 (configuration not stated) [Methylone] | 147.3
C[C@]12CCC(=O)C=C1CC[C@@H]1[C@@H]2CC[C@@]2(C)[C@H]1CC[C@]2(C)O [Methyltestosterone] | 176
CCN(CC)[C@@H](C)[C@H](O)c1ccccc1 [N-diethylnorephedrine] | 144.6
O=C1CC[C@@]2(O)[C@H]3Cc4ccc(O)c5c4[C@@]2(CCN3CC2CC2)[C@H]1O5 [Naltrexone] | 176.5
O=C1CN=C(c2ccccc2)c2cc([N+](=O)[O-])ccc2N1 [Nitrazepam] | 163.6
COc1ccc2c3c1O[C@H]1[C@@H](O)C=C[C@H]4[C@@H](C2)NCC[C@@]341 [Norcodeine] | 166.1
CN1CC[C@]23c4c5ccc(O)c4O[C@H]2C(=O)CC[C@@]3(O)[C@H]1C5 [Oxymorphone] | 164.6
CCCN1C[C@H](CSC)C[C@@H]2c3cccc4[nH]cc(c34)C[C@H]21 [Pergolide] | 177.9
CCOC(=O)C1(c2ccccc2)CCN(C)CC1 [Pethidine] | 158.5
Fc1ccccc1C1=NCC(=S)N(CC(F)(F)F)c2ccc(Cl)cc21 [Quazepam] | 174.9
O=C(O)C(c1ccccc1)C1CCCCN1 (configuration not stated) [Ritalinic acid] | 150
CC(C)CC(N(C)C)C1(c2ccc(Cl)cc2)CCC1 (configuration not stated) [Sibutramine] | 168
CN1C(=O)C(O)N=C(c2ccccc2)c2cc(Cl)ccc21 (configuration not stated) [Temazepam] | 166.1
COc1cc2c(cc1OC)C1CC(=O)C(CC(C)C)CN1CC2 (configuration not stated) [Tetrabenazine] | 182.6
COc1ccc2c3c1O[C@H]1C(OC(C)=O)=CC[C@H]4[C@@H](C2)N(C)CC[C@]314 [Thebacon] | 178.2
CN(C)CC1CCCCC1(O)c1cccc(O)c1 (configuration not stated) [Tramadol-M O-desmethyl] | 157.4
COc1cccc([C@@]2(O)CCCC[C@@H]2CN(C)C)c1 [Tramadol] | 161.4
NC1CC1c1ccccc1 (configuration not stated) [Tranylcypromine] | 127.6
